# According to US20220110902A1, “Methods of treating amyloid-beta peptide diseases” (Ecole Polytechnique Federale de Lausanne, priority 2016, published 2022):
# System: APP/PSEN1 AD mice
# Test: NR treatment of APP/PSEN1 AD mice: cortex plaques, MSR, Oxphos proteins
# Format: in vivo, mouse
# Conditions: NR 400 mg/kg/day for 10 weeks
# Experimental: Young (1 month old) and aged (20-24 months old) C57BL/6JRj mice were purchased from Janvier Labs. APP/PSEN1 mice (Tg(APPswe,PSEN1dE9)85Dbo/Mmjax) were purchased from JAX. C57BL/6JR mice were fed with pellets containing vehicle or NR (400 mg/kg/day) for 6-8 weeks, while APP/PSEN1 mice were fed NR pellets for 10 weeks, starting at the age of 4 months. The pellets were prepared by mixing powdered chow diet (20165, Harlan Laboratories) with water or with NR dissolved in water. Pellets were dried under a laminar flow hood for 48 hours. Mice were housed by groups of 2 to 5 animals per cage and randomized to 7-8 animals per experimental group according to their body weight. No blinding was used during the experiment procedures. Mouse: Total RNA was extracted from tissues using TriPure RNA isolation reagent (Roche) according to the product manual. Expression of selected genes was analyzed using the LightCycler480 system (Roche) and LightCycler® 480 SYBR Green I Master reagent (Roche). The beta-2-Microglobulin B2m gene was used as housekeeping reference. Mouse: Frozen cortex tissue samples were lysed by mechanical homogenization with RIPA buffer containing protease and phosphatase inhibitors, and analyzed by SDS-PAGE and western blot. Subsequently, the concentration of extracted protein was determined by using the Bio-Rad Protein Assay. Proteins were detected using the following antibodies: HSP60 (Enzo Life Science), CLPP (Sigma), anti-GAPDH (14C10) (Cell Signaling), LONP1 (Sigma), PINK1 (Novus Biologicals), LC3 A/B (Cell Signaling), SDHB (Oxphos cocktail, Abcam), MTCO1 (Abcam), Ubiquitin (Enzo), P62 (BD Transduction Laboratories), Phopsho P62 (Cell Signaling), VDAC (Abcam), β-Amyloid, 17-24 (4G8) (BioLegend). In addition to the housekeeping proteins, loading was monitored by Ponceau Red to ensure a homogeneous loading. […] Pixel intensity was quantified by using ImageJ software. […] Quantitative analysis of the immunofluorescence data was carried out by histogram analysis of the fluorescence intensity at each pixel across the images using Image J (Fiji; National Institutes of Health). […]
structure (smiles),measurement,setting,value
"NC(=O)c1ccc[n+]([C@@H]2O[C@H](CO)[C@@H](O)[C@H]2O)c1 [NR, Nicotinamide Riboside triflate]",MSR signature in cortex,,induced
same,Oxphos protein levels in cortex,,induced
same,"Aβ deposits (plaques) in cortex, Thioflavin S",starting at 4 months of age,robustly reduced
